Holding throughout (type): binding
In one test the target is T1, Bcl-b (Homo sapiens, UniProt Q9HD36).
T1 construct: without their C-terminal transmembrane domain; GST; made in house
T1 sequence (Q9HD36 1-182 limits assumed): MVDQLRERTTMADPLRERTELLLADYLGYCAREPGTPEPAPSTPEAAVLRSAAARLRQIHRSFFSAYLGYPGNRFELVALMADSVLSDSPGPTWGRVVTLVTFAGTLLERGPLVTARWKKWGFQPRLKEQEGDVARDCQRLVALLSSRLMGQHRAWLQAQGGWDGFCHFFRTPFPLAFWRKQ
Description: Bclb/Bim fluorescence polarization assay (FPA). Particulars: BIM BH3 peptide 5 nM, Bcl-b 40 nM, Ki calculated from FPA data. The source says:
(§1) Compounds were profiled for their ability to disrupt in vitro binding interactions in fluorescence polarization assays (FPAs) using synthetic fluorochrome-labeled Bcl homology 3 (BH3) peptides derived from BIM [(FAM)-Ahx-[…]-NH2 (SEQ ID NO: 1) (GenBank Accession No. O43521)] or BAK [Ac-GQVGRQLAIIGE-LYS(FAM)-INR-NH2 (SEQ ID NO:2) (GenBank Accession No. Q16611) amino acid sequences and four bacterial recombinant proteins [Bcl-b (GenBank Accession No. Q9HD36), Bcl-2 (GenBank Accession No. P10415), Bcl-Xl (GenBank Accession No. Q07817), Mcl-1 (GenBank Accession No. Q07820)] without their C-terminal transmembrane domain. Proteins were purified from bacterial lysates using their glutathione S-transferase (GST)-tag (Bcl-b, Bcl-2, Mcl-1) or His6-tag (Bcl-Xl) and following one-step affinity chromatography procedures. Dissociation constants (Kd) for peptide binding protein were determined by fluorescence polarization in FPAs measuring BIM BH3 peptide binding Bcl-b, Mcl-1 or Bcl-2 protein or BAK BH3 peptide binding Bcl-Xl protein. The Kd values were generated by fitting the experimental data using a sigmoidal dose-response nonlinear regression model.
(§2) Compound inhibitory concentration values, IC50 (50% reduction in fluorescence polarization), were determined using fluorochrome-labeled BH3 peptides and recombinant Bcl proteins in fluorescence polarization assays (FPAs). Compounds diluted in DMSO (0.5 ul) were transferred (in duplicate) to individual wells of a 384-well plate. The fluorochrome-labeled peptide was added followed by recombinant protein addition. Each binding FPA reaction (50 ul) contained BIM BH3 peptide (5 nM) or BAK BH3 peptide (1.5 nM) and Bcl-b (40 nM), Mcl-1 (28 nM), Bcl-2 (11 nM) or Bcl-Xl. (5 nM) protein suspended in assay buffer [20 mM sodium phosphate, pH 7.4, 1 mM EDTA, 50 mM NaCl., 0.05% Pluronic F68]. Reaction mixtures were incubated at ambient temperature for 60 minutes prior to measuring polarization (mP) using an Analyst (LJL, Molecular Devices, Sunnyvale, Calif.) programmed to detect an emission wavelength of 530 nm after excitation (excitation wavelength=485 nm).
(§3) Competitive compound inhibition constants (Ki) were calculated using FPA experimental data and a mathematical equation, Ki=[I]50/([L]50/Kd+[P]0/Kd+1), where [I]50 denotes free inhibitor concentration at 50% inhibition, [L]50 is free labeled ligand concentration at 50% inhibition, [P]0 is free protein concentration at 0% inhibition, and Kd is the dissociation constant of the protein-ligand complex.

A further test has as its target T2, Mcl-1 (Homo sapiens, UniProt Q07820).
T2 construct: without their C-terminal transmembrane domain; GST; made in house
Description: Mcl-1/Bim fluorescence polarization assay (FPA). Particulars: BIM BH3 peptide 5 nM, Mcl-1 28 nM, Ki calculated from FPA data.
Text: as §1, §2, §3

Another test deals with T3, Bcl-2 (Homo sapiens, UniProt P10415).
T3 construct: without their C-terminal transmembrane domain; GST; made in house
T3 sequence (P10415 1-211 limits assumed): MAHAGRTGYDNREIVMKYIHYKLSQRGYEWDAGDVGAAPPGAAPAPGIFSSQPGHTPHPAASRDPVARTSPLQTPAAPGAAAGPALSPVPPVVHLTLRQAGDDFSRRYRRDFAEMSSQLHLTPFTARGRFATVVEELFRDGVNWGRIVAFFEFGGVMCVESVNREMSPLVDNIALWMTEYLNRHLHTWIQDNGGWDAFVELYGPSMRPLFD
Description: Bcl2/Bim fluorescence polarization assay (FPA). Conditions: BIM BH3 peptide 5 nM, Bcl-2 11 nM, Ki calculated from FPA data.
Text: as §1, §2, §3

SMILES strings stand for the structures.

By Ki is commonly meant a dissociation constant, usually derived from enzyme kinetics or from competition with a known ligand.

T2 sequence (Q07820 1-327 limits assumed): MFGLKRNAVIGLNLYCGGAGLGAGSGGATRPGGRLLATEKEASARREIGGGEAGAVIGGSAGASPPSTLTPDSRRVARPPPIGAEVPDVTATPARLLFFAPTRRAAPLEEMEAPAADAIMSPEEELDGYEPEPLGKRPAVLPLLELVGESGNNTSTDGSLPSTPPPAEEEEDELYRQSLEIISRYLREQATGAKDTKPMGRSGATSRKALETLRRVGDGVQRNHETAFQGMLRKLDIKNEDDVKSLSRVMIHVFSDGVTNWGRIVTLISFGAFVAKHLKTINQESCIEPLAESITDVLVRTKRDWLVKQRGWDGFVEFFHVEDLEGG

Regarding `CC(C)NC(=O)c1cc(Cl)c(O)c(S(=O)(=O)N(Cc2ccc(F)cc2)Cc2cccc(-c3ccc(Cl)cc3)c2)c1` [Example 211, 3-Chloro-5-(N-((4′-chlorobiphenyl-3-yl)methyl)-N-(4-fluorobenzyl)-sulfamoyl)-4-hydroxy-N-isopropylbenzamide], the Ki is 160 nM at Bcl-b, 530 nM on Mcl-1 and 480 nM on Bcl-2.
`O=C(NCCCO)c1cc(Cl)c(O)c(S(=O)(=O)N(Cc2ccc(F)cc2)Cc2cccc(-c3ccc(Cl)cc3)c2)c1` [Example 213, 3-Chloro-5-(N-((4′-chlorobiphenyl-3-yl)methyl)-N-(4-fluorobenzyl)-sulfamoyl)-4-hydroxy-N-(3-hydroxypropyl)benzamide]: the Ki is 470 nM on Bcl-b, 2700 nM on Mcl-1 and 1220 nM on Bcl-2.
Consider `O=C(NCC(O)CO)c1cc(Cl)c(O)c(S(=O)(=O)N(Cc2ccc(F)cc2)Cc2cccc(-c3ccc(Cl)cc3)c2)c1` (stereo not drawn) [Example 214, 3-Chloro-5-(N-((4′-chlorobiphenyl-3-yl)methyl)-N-(4-fluorobenzyl)-sulfamoyl)-N-(2,3-dihydroxypropyl)-4-hydroxybenzamide], for which the Ki was 610 nM at Bcl-b, 1640 nM on Mcl-1 and 1800 nM on Bcl-2.
Consider `O=C(NCc1ccccc1)c1cc(Cl)c(O)c(S(=O)(=O)N(Cc2ccc(F)cc2)Cc2ccc(Oc3ccc(C(F)(F)F)cc3)cc2)c1` [Example 219, N-Benzyl-3-chloro-5-(N-(4-fluoro-benzyl)-N-(4-(4-(trifluoromethyl)-phenoxy)benzyl)sulfamoyl)-4-hydroxybenzamide], for which the Ki at Bcl-b was 120 nM; on Mcl-1 it was 40 nM; at Bcl-2, 170 nM.
Regarding `COc1c(Cl)cc(CN(CCn2ccc3ccccc32)S(=O)(=O)c2cc(C(=O)NCc3ccccc3)cc(Cl)c2O)cc1-c1ccc(Cl)cc1` [Example 222, 3-(N-(2-(1H-Indol-1-yl)ethyl)-N-((4′,5-dichloro-6-methoxybiphenyl-3-yl)methyl)sulfamoyl)-N-benzyl-5-chloro-4-hydroxybenzamide], the Ki is 30 nM at Bcl-b, 30 nM at Mcl-1 and 170 nM at Bcl-2.
Regarding `COC(=O)c1cc(Cl)cc(S(=O)(=O)N(Cc2ccc(F)cc2)Cc2cccc(-c3ccc(Cl)cc3)c2)c1O` [Example 226, Methyl 5-chloro-3-(N-((4′-chloro-biphenyl-3-yl)methyl)-N-(4-fluorobenzyl)sulfamoyl)-2-hydroxybenzoate], the inhibition constant (Ki) on Bcl-b is 500 nM; at Mcl-1, 2280 nM; at Bcl-2, 3730 nM.
Take `O=S(=O)(c1cc(Cl)cc(Cl)c1O)N(Cc1ccc(F)cc1)Cc1cccc(-c2ccc(Cl)cc2)c1` [Example 232, 3,5-Dichloro-N-((4′-chlorobiphenyl-3-yl)methyl)-N-(4-fluorobenzyl)-2-hydroxybenzenesulfonamide]: the figures for the inhibition constant (Ki) at Bcl-b, on Mcl-1 and at Bcl-2 were 90 nM, 50 nM and 90 nM, respectively.
As for `CCCCCCCCc1ccc(CN(Cc2cccc(Oc3ccc(F)cc3)c2)S(=O)(=O)c2cc(Cl)cc(Cl)c2O)cc1` [Example 235, 3,5-Dichloro-N-(3-(4-fluorophenoxy)benzyl)-2-hydroxy-N-(4-octylbenzyl)benzenesulfonamide], the Ki on Bcl-b was 60 nM; at Mcl-1 it was 40 nM; on Bcl-2, 80 nM.
With `COc1c(CN(Cc2ccc(F)cc2)S(=O)(=O)c2cc(Cl)cc(Cl)c2O)cccc1-c1ccc(Cl)cc1` [Example 240, 3,5-Dichloro-N-((4′-chloro-2-methoxybiphenyl-3-yl)methyl)-N-(4-fluorobenzyl)-2-hydroxybenzenesulfonamide], the Ki on Bcl-b is 110 nM; on Mcl-1 it was 470 nM; at Bcl-2, 120 nM.
In the case of `CCCCc1ccc(-c2cccc(CN(Cc3ccc(F)cc3)S(=O)(=O)c3cc(Cl)cc(Cl)c3O)c2)cc1` [Example 256, N-((4′-Butylbiphenyl-3-yl)methyl)-3,5-dichloro-N-(4-fluorobenzyl)-2-hydroxybenzenesulfonamide], the inhibitory constant (Ki) at Bcl-b was 140 nM; at Mcl-1, 2120 nM; on Bcl-2 it was 130 nM.
As for `Cc1cccc(CN(Cc2ccc(F)cc2)S(=O)(=O)c2cc(Cl)cc(Cl)c2O)c1` [Example 266, 3,5-Dichloro-N-(4-fluorobenzyl)-2-hydroxy-N-(3-methylbenzyl)benzenesulfonamide], the results for the inhibition constant Ki at Bcl-b, on Mcl-1 and at Bcl-2 were 300 nM, 1680 nM and 720 nM, respectively.
In the case of `O=S(=O)(c1cc(Cl)cc(Cl)c1O)N(Cc1ccc(Cl)cc1)Cc1cccc(-c2ccc(Cl)cc2)n1` [Example 274, 3,5-Dichloro-N-(4-chlorobenzyl)-N-((6-(4-chlorophenyl)pyridin-2-yl)methyl)-2-hydroxybenzenesulfonamide], the Ki is 450 nM at Bcl-b, 1570 nM on Mcl-1 and 520 nM at Bcl-2.
